Experimental data as given in publication PMC5823406, “Vehicle development, pharmacokinetics and toxicity of the anti-invasive agent 4-fluoro-3’,4’,5’-trimethoxychalcone in rodents” (PLoS ONE, 2018).
Several values for one entry are separate records, joined by “and”; a condition that tells them apart may be missing. Equal values may be shown once.

Key:
[1] = Whole blood C16 determination after 7-day dosing via medicated gels; type: in vivo, mouse; conditions: for Blood concentration of C16: Average±SD
Experimental: On the evening of day 6, blood was collected via the tail vein for the 0, 100 and 300 mg/kg C16 cohorts for determination of the whole blood C16 level. On the morning of day 7, mice of the 0, 100 and 300 mg/kg C16 cohorts were anesthetized by IP injection with 250 mg/kg of Avertin (20 mL/kg, preparation see Section E in S1 File). Blood for C16 determination and hematological and biochemical analysis was collected via cardiac exsanguination (600 μL to 1 mL). Detailed analysis protocols are described below. Afterward, animals were sacrificed by cervical dislocation.
Blood samples (25 μL) were collected via the tail vein or cardiac puncture (last time point). Blood was pipetted into a tube with 25 μL heparinized water (1 μL of sodium heparin (1000 units/mL) + 24 μL water) within 30 seconds of collection. The sample was pipetted up and down five times, immediately frozen on dry ice, and stored at -60°C to -80°C until analysis.
E.C. Whole blood C16 levels
Table AA. Individual blood concentration (ng/mL) for C16 in cohorts on medicated gel .
Cohort and animal Evening Morning
BLOQ: below the limit of quantitation (0.5 ng/mL). Samples that were below the limit of quantification were not used in the calculation of
Table BB. […]

[2] = Metabolite profiling in whole blood; type: in vitro ADME; conditions: rat whole blood
Experimental: C. Stability and metabolism
For details on ADME experiments not included underneath , please consult ref. [1].
C.A. Whole blood stability
Column: Kinetex XB-C18 column, 2.6 µm (150 x2.1 mm)
Mobile phase A: H2O + 0.1% v/v Formic Acid
Mobile phase B: MeCN + 0.1% v/v Formic Acid
Autosampler syringe volume: 100 µL
Weak wash: MeOH:H2O 1:9 v/v
Strong wash: MeOH:H2O 95:5 v/v
Table K. Gradient program.
Mass spectrometric conditions
Model: AB Sciex API5500 QTrap
Mode: Multiple ion monitoring (MIM)
Table L. MIM (parent to parent transitions).
The areas and percentages for the parent and metabolites have been calculated using MIM data where parent to parent transitions have been used, and assume that each metabolite has the same point of ionisation and the sensitivity of the metabolite has not been affected by the biotransformation.

[3] = Liver microsome stability; type: in vitro ADME; conditions: liver microsomes (rat, Sprague-Dawley)
Excerpt: (§1) Table 3 In vitro physicochemical, stability and metabolism data. | column: Value

CYP 1A2 = biological target: T1, CYP 1A2 (Homo sapiens, UniProt P05177); assay: CYP inhibition 1A2 (CEC substrate); type: in vitro ADME; conditions: 10 μM
T1 sequence (P05177 1-516): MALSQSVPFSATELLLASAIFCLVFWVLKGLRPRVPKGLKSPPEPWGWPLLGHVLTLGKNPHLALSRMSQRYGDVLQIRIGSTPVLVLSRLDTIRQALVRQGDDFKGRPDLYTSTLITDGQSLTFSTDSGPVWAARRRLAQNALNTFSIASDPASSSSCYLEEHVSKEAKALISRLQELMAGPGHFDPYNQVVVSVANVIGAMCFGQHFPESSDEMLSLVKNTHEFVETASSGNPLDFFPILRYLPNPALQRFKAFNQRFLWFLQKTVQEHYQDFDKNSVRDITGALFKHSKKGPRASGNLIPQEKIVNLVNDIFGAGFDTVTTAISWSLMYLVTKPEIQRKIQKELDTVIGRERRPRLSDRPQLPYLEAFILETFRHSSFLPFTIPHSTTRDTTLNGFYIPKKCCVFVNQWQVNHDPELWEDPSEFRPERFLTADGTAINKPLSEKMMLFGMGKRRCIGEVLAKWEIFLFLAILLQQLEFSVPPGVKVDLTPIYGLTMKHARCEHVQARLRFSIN
Excerpt: as §1

[4] = Solubility in vehicles, laser nephelometry; type: physicochemical
Experimental: The solubility of C16 was tested at 10 and 30 mg/mL for the indicated vehicles using laser nephelometry in 96-well plates (BMG LabTech NEPHELOstar microplate reader, BMG LabTech, USA). Solutions were prepared using solubilizing techniques including sonication, heating up to 37 °C and vortex. Solubility data was categorized as soluble (result ≤ +15 of blank), slightly soluble (result between +15 and +25 of blank) or not soluble (result > +25 of blank).
C16 has low aqueous solubility, which limits the choice of preclinical formulations for in vivo studies. In this work, thirteen vehicles were evaluated for their applicability in single-dose studies (Table 1). For commonly used systems (entries a-e) visual determination of solubility was conducted, while for the more complex systems solubility was assessed by laser nephelometry.

CYP 2D6 = CYP 2D6 (Homo sapiens, UniProt P10635); assay: CYP inhibition 2D6 (MFC substrate); type: in vitro ADME; conditions: 10 μM
Excerpt: as §1

[5] = Protein binding and recovery; type: in vitro ADME; conditions: Human plasma
[6] = Half-life in PBS, simulated gastric fluid and simulated intestinal fluid; type: physicochemical; conditions: 1 μM
Excerpt: as §1

CYP 3A4 = CYP 3A4 (Homo sapiens, UniProt P08684); assay: CYP inhibition 3A4 (BFC substrate); type: in vitro ADME; conditions: 10 μM
Excerpt: as §1

MCF-7/6 = assay: Chick heart invasion assay (3D confrontation culture); type: cell-based; conditions: Homo sapiens, MCF7/6; read-out: projected C16 EC50 value
Excerpt: Our laboratories have been characterizing and validating 4-fluoro-3’,4’,5’-trimethoxychalcone or C16 as a novel invasion inhibitor for the study and potential treatment of metastatic cancer (Fig 1). C16 has nanomolar anti-invasive potency in the chick heart and Matrigel in vitro invasion models against several human cancer cell lines (MCF-7/6 breast cancer, BLM melanoma and SK-OV-3 ovarian carcinoma). […] Given its discovery in a phenotypic model, the biological target of C16 is unknown. We have differentiated the molecular mechanism of action of C16 from that of other antimetastatic agents, and are currently characterizing its biochemical interactions in detail.
Fig 1 Structure and biological activity of C16.

CYP 2D6, sequence (P10635 whole entry): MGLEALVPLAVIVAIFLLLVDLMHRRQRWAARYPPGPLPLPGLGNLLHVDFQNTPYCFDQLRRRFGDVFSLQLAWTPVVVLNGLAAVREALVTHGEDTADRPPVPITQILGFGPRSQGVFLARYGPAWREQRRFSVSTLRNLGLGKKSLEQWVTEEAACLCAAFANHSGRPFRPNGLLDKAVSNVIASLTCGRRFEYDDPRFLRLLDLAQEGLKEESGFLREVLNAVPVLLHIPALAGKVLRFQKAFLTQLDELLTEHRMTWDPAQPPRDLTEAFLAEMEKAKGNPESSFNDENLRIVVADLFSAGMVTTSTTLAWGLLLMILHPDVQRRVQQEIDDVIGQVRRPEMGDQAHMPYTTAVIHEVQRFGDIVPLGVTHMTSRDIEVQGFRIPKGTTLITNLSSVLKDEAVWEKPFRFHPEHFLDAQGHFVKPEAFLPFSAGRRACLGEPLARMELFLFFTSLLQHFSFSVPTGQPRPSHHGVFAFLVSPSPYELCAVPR
CYP 3A4, sequence (P08684 whole entry): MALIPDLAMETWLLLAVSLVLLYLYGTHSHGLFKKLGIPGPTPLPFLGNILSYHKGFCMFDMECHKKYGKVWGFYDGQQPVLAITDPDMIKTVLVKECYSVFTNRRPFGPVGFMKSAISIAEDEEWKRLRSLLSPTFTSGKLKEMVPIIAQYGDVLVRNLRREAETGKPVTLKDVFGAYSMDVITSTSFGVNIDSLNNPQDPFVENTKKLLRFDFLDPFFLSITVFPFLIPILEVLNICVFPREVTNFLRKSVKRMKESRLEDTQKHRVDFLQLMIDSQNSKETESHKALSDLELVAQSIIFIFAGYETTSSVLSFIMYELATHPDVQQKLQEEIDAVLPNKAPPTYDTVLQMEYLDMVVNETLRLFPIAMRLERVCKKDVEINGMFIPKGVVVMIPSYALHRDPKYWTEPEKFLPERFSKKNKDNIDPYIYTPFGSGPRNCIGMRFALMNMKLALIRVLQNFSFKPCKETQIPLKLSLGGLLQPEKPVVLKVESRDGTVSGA

COc1cc(C(=O)/C=C/c2ccc(F)cc2)cc(OC)c1OC [C16, 4-fluoro-3’,4’,5’-trimethoxychalcone]
Blood concentration of C16 ([1]; 100 mg/kg cohort on medicated gel, Evening (day 6)): 8.48 ± 2.28 ng/mL
Individual blood concentration of C16 ([1]; 100 mg/kg cohort on medicated gel, Evening, animals 2-1 to 2-4): 8.39 ng/mL and 5.39 ng/mL and 9.33 ng/mL and 10.8 ng/mL
Blood concentration of C16 ([1]; 100 mg/kg cohort on medicated gel, Morning (day 7)): 31.2 ± 26.0 ng/mL
Individual blood concentration of C16 ([1]; 100 mg/kg cohort on medicated gel, Morning, animals 2-1 to 2-4): 11.5 ng/mL and 6.14 ng/mL and 56.2 ng/mL and 50.8 ng/mL
Blood concentration of C16 ([1]; 300 mg/kg cohort on medicated gel, Evening (day 6)): 7.63 ± 5.07 ng/mL
Individual blood concentration of C16 ([1]; 300 mg/kg cohort on medicated gel, Evening, animals 3-1, 3-3, 3-4): 3.51 ng/mL and 13.3 ng/mL and 6.09 ng/mL
Blood concentration of C16 ([1]; 300 mg/kg cohort on medicated gel, Morning (day 7)): 38.1 ± 27.8 ng/mL
Individual blood concentration of C16 ([1]; 300 mg/kg cohort on medicated gel, Morning, animals 3-1 to 3-4): 30.1 ng/mL and 21.6 ng/mL and 79.3 ng/mL and 21.3 ng/mL
Whole blood C16 concentrations versus projected EC50 ([1]; medicated gel, day 6 evening and day 7 morning): above its projected EC50
Area in sample (%) ([2]; 0 min control): 62.4%
Area in sample (%) ([2]; 15 min sample): 52.2%
half-life at 0.1 μM [3]: 20 min
microsomal CLint at 0.1 μM ([3]; read-out: Intr. clearance): 339 µL/min/mg
CYP inhibition 1A2 (CEC substrate) (CYP 1A2): 36 % inhibition of control
Solubility of C16 in vehicle: Result ([4]; 10% Cremophor EL / 10% EtOH, 10 mg/mL): Insoluble ^b
Solubility of C16 in vehicle: Result ([4]; 10% Cremophor EL / 10% EtOH, 30 mg/mL): Insoluble ^b
Solubility of C16 in vehicle: Result ([4]; 10% DMA / 10% EtOH / 20% PG, 10 mg/mL): Insoluble ^b
Solubility of C16 in vehicle: Result ([4]; 10% DMA / 10% EtOH / 20% PG, 30 mg/mL): Insoluble ^b
Solubility of C16 in vehicle: Result ([4]; 10% Dimethylacetamide (DMA) / 90% PEG 600, 10 mg/mL): Soluble ^b
Solubility of C16 in vehicle: Result ([4]; 10% Dimethylacetamide (DMA) / 90% PEG 600, 30 mg/mL): Soluble ^b
Solubility of C16 in vehicle: Result ([4]; 10% Solutol HS-15 / 90% PEG 600, 10 mg/mL): Soluble ^b
Solubility of C16 in vehicle: Result ([4]; 10% Solutol HS-15 / 90% PEG 600, 30 mg/mL): Soluble ^b
Solubility of C16 in vehicle: Result ([4]; 10%DMA / 20%PG / 40% PEG 400, 10 mg/mL): Insoluble ^b
Solubility of C16 in vehicle: Result ([4]; 10%DMA / 20%PG / 40% PEG 400, 30 mg/mL): Insoluble ^b
Solubility of C16 in vehicle: Result ([4]; 20% PEG 400 / 10% Cremophor EL, 10 mg/mL): Insoluble ^b
Solubility of C16 in vehicle: Result ([4]; 20% PEG 400 / 10% Cremophor EL, 30 mg/mL): Insoluble ^b
Solubility of C16 in vehicle: Result ([4]; 40% PEG 400 / 10% EtOH, 10 mg/mL): Insoluble ^b
Solubility of C16 in vehicle: Result ([4]; 40% PEG 400 / 10% EtOH, 30 mg/mL): Insoluble ^b
Solubility of C16 in vehicle: Result ([4]; 100% Corn oil, 10 mg/mL): Insoluble ^b
Solubility of C16 in vehicle: Result ([4]; 100% Corn oil, 30 mg/mL): Insoluble ^b
CYP inhibition 2D6 (MFC substrate) (CYP 2D6): -19 % inhibition of control
fraction unbound at 100 μM [5]: 0.01
recovery at 100 μM [5]: 90%
half-life ([6]; PBS, pH 7.4): >240 min
half-life ([6]; simulated gastric fluid): >60 min
half-life ([6]; simulated intestinal fluid): >240 min
CYP inhibition 3A4 (BFC substrate) (CYP 3A4): 27 % inhibition of control
EC50 (MCF-7/6): 10 nM and 0.00632 µg/mL
